In one data set the target is T1, aromatase (Rattus norvegicus, UniProt P22443).
T1 construct: from tissue; host or cells: whole animal: adult female Wistar rats (endogenous enzyme)
T1 sequence (P22443 1-508): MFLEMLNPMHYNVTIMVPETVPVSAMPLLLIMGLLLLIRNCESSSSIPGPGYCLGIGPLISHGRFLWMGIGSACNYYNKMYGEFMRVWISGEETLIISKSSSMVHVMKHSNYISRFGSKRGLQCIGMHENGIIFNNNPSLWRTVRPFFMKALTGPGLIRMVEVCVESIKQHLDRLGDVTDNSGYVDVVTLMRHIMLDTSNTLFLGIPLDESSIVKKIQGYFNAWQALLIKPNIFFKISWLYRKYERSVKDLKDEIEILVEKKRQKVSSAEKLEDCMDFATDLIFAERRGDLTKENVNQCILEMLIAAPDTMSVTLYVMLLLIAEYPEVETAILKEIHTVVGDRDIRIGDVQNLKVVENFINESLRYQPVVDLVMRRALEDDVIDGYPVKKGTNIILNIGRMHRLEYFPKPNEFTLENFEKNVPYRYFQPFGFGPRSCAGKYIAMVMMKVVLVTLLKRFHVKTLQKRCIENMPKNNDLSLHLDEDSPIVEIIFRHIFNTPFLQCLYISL
The data set is described as follows: Inhibition of aromatase in vivo: inhibition of preovulatory surge of plasma estradiol in female Wistar rats. Conditions: single oral dose 10 μg/kg on diestrus, plasma estradiol 24 h later, vs vehicle controls; range = independent studies. From the text:
Aromatase is the steroidogenic enzyme responsible for the biosynthesis of estradiol, the main female sex hormone among estrogens. In the rat, estradiol is physiologically synthesized to high circulating levels in a particular period during the 4-day estrous cycle: it is the so-called preovulatory surge taking place in the afternoon of proestrus, just before ovulation which occurs during the night between proestrous and estrous phases. A sensitive physiological model for in vivo evaluation of aromatase inhibition was developped based on the inhibition of this preovulatory surge of estradiol levels.
Adult female Wistar rats are monitored for regular 4-day estrous cyclicity by daily vaginal smear examination; after 2 or 3 regular cycles, animals are treated by a single oral administration of the very low discriminative dose of 10 micrograms/kg in a 4 ml/kg volume around 04:00 PM on diestrus, i.e. on the day before proestrus. Precisely 24 hours later, aortic blood samples are drawn under gaseous anesthesia. Plasma estradiol levels are measured by radioimmunoassay with commercially available kits (Diagnostic Systems Laboratories, Webster, Tex., U. S. A.). Control and test groups usually consist of 7 to 10 rats, depending on the number of regularly cycling rats to distribute among study groups. Results are expressed in pg/ml and then in % of inhibition taking the estradiol levels of control animals receiving only the oral vehicle as the 100% reference to allow comparisons between different independent studies, since the preovulatory surge level may vary in each control group from one study to another between about 25 to 40 pg/ml.

Another data set deals with T2, human aromatase (Homo sapiens, UniProt P11511).
T2 construct: The JEG-3 cell line, derived from a human placental choriocarcinoma, is intrinsically very rich in human aromatase; endogenous in cells; host or cells: JEG-3 (human placental choriocarcinoma)
T2 sequence (P11511 1-503): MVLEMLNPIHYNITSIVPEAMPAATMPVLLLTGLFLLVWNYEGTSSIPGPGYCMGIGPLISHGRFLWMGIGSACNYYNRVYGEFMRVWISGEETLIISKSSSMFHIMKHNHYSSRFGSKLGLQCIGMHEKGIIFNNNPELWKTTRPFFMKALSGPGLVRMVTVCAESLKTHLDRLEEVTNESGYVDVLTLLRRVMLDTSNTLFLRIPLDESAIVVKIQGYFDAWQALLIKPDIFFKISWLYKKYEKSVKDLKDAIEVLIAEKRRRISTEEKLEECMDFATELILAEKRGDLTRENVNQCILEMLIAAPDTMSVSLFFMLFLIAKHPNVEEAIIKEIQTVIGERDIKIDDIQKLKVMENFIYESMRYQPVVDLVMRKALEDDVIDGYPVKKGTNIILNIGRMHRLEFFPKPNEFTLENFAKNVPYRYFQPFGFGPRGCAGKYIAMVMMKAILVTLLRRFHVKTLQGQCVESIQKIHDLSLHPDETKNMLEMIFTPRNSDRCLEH
The data set is described as follows: Inhibition of human aromatase in vitro in JEG-3 cells (3H-water release from 1β-3H-androstenedione). Format: cell-based. Conditions: 10 nM 1β-3H-androstenedione, 2 h incubation. On the procedure:
Stocks of JEG-3 cells are grown up to 80% of confluence as monolayers in plastic flasks in minimum Eagle's medium with 1 g/l glucose and 10% decomplemented fetal calf serum at pH 7.4 and 37° C., under a 5% CO2 atmosphere. Then, 24 hours before aromatase activity measurement, JEG-3 cells are distributed for seeding in 96-well microplates (60,000 to 100,000 viable cells in 100 μl of culture medium per well); 24 hours later, microplates are rinsed and fresh medium containing the radioactive aromatase substrate (1β-^3H-androstenedione, 10 nM) is added together with test compounds dissolved with 1% dimethylsulfoxyde in a test concentration range between 10^−11 and 10^−4 M in a total volume of 150 μl.
Two hours after the beginning of the incubation, 100 μl of the supernatants are transferred to homologous new 96-well microplates. A solution of dextran-coated charcoal (1%) is added in each well (100 μl/well); after standing for 10 minutes on ice, microplates are centrifuged (1500 g) for 10 more minutes at 4° C. All steroids, including the radioactive substrate and the newly biosynthesized estrogens, are trapped complexed by the charcoal; only the ^3H-water specifically formed during aromatisation of 1β-^3H-androstenedione, involving a specific oxidative step removing the 1β-^3H, remains in the supernatant at this stage.
Finally, aromatase activity is expressed in fmoles/μg DNA in 2 hours and aromatase inhibition in percentage of control incubation without inhibitors.

By % inhibition is commonly meant the change of the read-out against control, counted positive when it falls. In the case of `CC(C)(C#N)c1cc(Cn2cncn2)cc(C(C)(C)C#N)c1` [Anastrozole, anastrozole, reference compound], on aromatase, the “% inhibition at 10 μg/kg” value was 18%-33%.

Broadly, the IC50 is the point on the concentration scale where inhibition reaches its midpoint. Low values mean greater potency, high ones weaker potency. By melting point is commonly meant the temperature, or range, at which the solid turns liquid. Compound `N#Cc1ccc(N(Cc2ccc(C(F)(F)F)cc2)n2ccnc2)cc1` [Example 6, 4-[N-(1H-imidazol-1-yl)-N-(4-trifluoromethylphenylmethyl)amino]benzonitrile] showed a melting point of 134 °C. On human aromatase, this compound displayed an IC50 of 0.31 ± 0.01 nM. Further, the “% inhibition at 10 μg/kg” value at aromatase amounted to 57%.

On to `N#Cc1ccc(N(Cc2ccc(Cl)cc2)n2ccnc2)cc1` [Example 7, 4-[N-(1H-imidazol-1-yl)-N-(4-chlorophenylmethyl)amino]benzonitrile], for which the IC50 against human aromatase came to 0.14 ± 0.05 nM. Moreover, the “% inhibition at 10 μg/kg” value at aromatase came to 47%.

At human aromatase, `N#Cc1ccc(CN(c2ccc(C#N)cc2)n2ccnc2)cc1` [Example 11, 4-[N-(1H-imidazol-1-yl)-N-(4-cyanophenylmethyl)amino]benzonitrile] showed a 50% inhibitory concentration (IC50) of 0.18 ± 0.02 nM. For the same compound, on aromatase, the “% inhibition at 10 μg/kg” value is reported as 57%-59%.

For the compound `N#Cc1ccc(N(Cc2ccc(F)cc2)n2ccnc2)cc1` [Example 14, 4-[N-(1H-imidazol-1-yl)-N-(4-fluorophenylmethyl)amino]benzonitrile], at human aromatase, half-maximal inhibition (IC50) was put at 0.16 ± 0.02 nM. For the same compound, the “% inhibition at 10 μg/kg” value at aromatase is 49%-57%.

For `N#Cc1ccc(N(Cc2ccc(F)c(F)c2)n2ccnc2)cc1` [Example 17, 4-[N-(1H-imidazol-1-yl)-N-(3,4-difluorophenylmethyl)amino]benzonitrile], the melting point was 132 °C. At human aromatase, the half-maximal inhibitory concentration (IC50) was found to be 0.24 ± 0.02 nM. Besides, the “% inhibition at 10 μg/kg” value on aromatase worked out at 60%.

On to `N#Cc1ccc(N(Cc2ccc(Br)cc2)n2cncn2)cc1` [YM 511, reference compound], for which the half-inhibitory concentration (IC50) against human aromatase was determined as 0.3 ± 0.04 nM. The “% inhibition at 10 μg/kg” value at aromatase turned out to be 35%.

For the origin of these results see US6737433B1, “1-N-phenylamino-1H-imidazole derivatives as aromatase inhibitors and pharmaceutical compositions containing them” (Laboratoire Theramex, priority 2002, dated 2004).
